PubChem BioAssay (NCI)
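How tested: cells in 96-well plates exposed to compound for 48 hours at five concentrations. GI50 is the concentration that inhibits growth by half. Definition used: TGI = concentration required for complete inhibition of growth.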

How the values were obtained:
Assay in all cases: growth of human tumour cells (NCI), 48 h
NCI-H226 lung = test system: NCI-H226 lung
NCI-H23 lung = test system: NCI-H23 lung
NCI-H460 lung = test system: NCI-H460 lung
NCI-H522 lung = test system: NCI-H522 lung
NCI/ADR-RES ovarian = test system: NCI/ADR-RES ovarian
OVCAR-3 ovarian = test system: OVCAR-3 ovarian
OVCAR-4 ovarian = test system: OVCAR-4 ovarian
OVCAR-5 ovarian = test system: OVCAR-5 ovarian
OVCAR-8 ovarian = test system: OVCAR-8 ovarian
PC-3 prostate = test system: PC-3 prostate
RPMI-8226 leukemia = test system: RPMI-8226 leukemia
RXF 393 renal = test system: RXF 393 renal
SF-268 CNS = test system: SF-268 CNS
SF-295 CNS = test system: SF-295 CNS
SF-539 CNS = test system: SF-539 CNS
SK-MEL-2 melanoma = test system: SK-MEL-2 melanoma
SK-MEL-28 melanoma = test system: SK-MEL-28 melanoma
SK-MEL-5 melanoma = test system: SK-MEL-5 melanoma
SK-OV-3 ovarian = test system: SK-OV-3 ovarian
SN12C renal = test system: SN12C renal
SNB-19 CNS = test system: SNB-19 CNS
SNB-75 CNS = test system: SNB-75 CNS
SR leukemia = test system: SR leukemia
SW-620 colon = test system: SW-620 colon
T-47D breast = test system: T-47D breast
TK-10 renal = test system: TK-10 renal
U251 CNS = test system: U251 CNS
UACC-257 melanoma = test system: UACC-257 melanoma
UACC-62 melanoma = test system: UACC-62 melanoma
UO-31 renal = test system: UO-31 renal

O=C(CSc1nc2ccccc2c(=O)n1-c1ccc(Cl)cc1)Nc1ccc(-c2nc3ccccc3[nH]2)cc1
TGI (NCI-H226 lung): 22.5 µM
GI50 (NCI-H23 lung): 2240 nM
TGI (NCI-H23 lung): 5.89 µM
GI50 (NCI-H460 lung): 1770 nM
TGI (NCI-H460 lung): 3.38 µM
GI50 (NCI-H522 lung): 1950 nM
TGI (NCI-H522 lung): 4.54 µM
GI50 (NCI/ADR-RES ovarian): 2490 nM
TGI (NCI/ADR-RES ovarian): 7.35 µM
GI50 (OVCAR-3 ovarian): 2050 nM
TGI (OVCAR-3 ovarian): 4.3 µM
GI50 (OVCAR-4 ovarian): 1880 nM
TGI (OVCAR-4 ovarian): 3.94 µM
GI50 (OVCAR-5 ovarian): 3.12 µM
TGI (OVCAR-5 ovarian): 13.7 µM
GI50 (OVCAR-8 ovarian): 1830 nM
TGI (OVCAR-8 ovarian): 3.66 µM
GI50 (PC-3 prostate): 3.01 µM
TGI (PC-3 prostate): 10.9 µM
GI50 (RPMI-8226 leukemia): 2780 nM
TGI (RPMI-8226 leukemia): 10.1 µM
GI50 (RXF 393 renal): 2090 nM
TGI (RXF 393 renal): 5.31 µM
GI50 (SF-268 CNS): 3.67 µM
TGI (SF-268 CNS): 15.7 µM
GI50 (SF-295 CNS): 3.3 µM
TGI (SF-295 CNS): 11.8 µM
GI50 (SF-539 CNS): 2110 nM
TGI (SF-539 CNS): 4.89 µM
GI50 (SK-MEL-2 melanoma): 3.06 µM
TGI (SK-MEL-2 melanoma): 11.9 µM
GI50 (SK-MEL-28 melanoma): 1820 nM
TGI (SK-MEL-28 melanoma): 3.43 µM
GI50 (SK-MEL-5 melanoma): 3.62 µM
TGI (SK-MEL-5 melanoma): 12.8 µM
GI50 (SK-OV-3 ovarian): 10.2 µM
TGI (SK-OV-3 ovarian): 21.9 µM
GI50 (SN12C renal): 1730 nM
TGI (SN12C renal): 3.3 µM
GI50 (SNB-19 CNS): 2220 nM
TGI (SNB-19 CNS): 5.28 µM
GI50 (SNB-75 CNS): 1710 nM
TGI (SNB-75 CNS): 6.04 µM
GI50 (SR leukemia): 1420 nM
TGI (SR leukemia): 7.77 µM
GI50 (SW-620 colon): 1840 nM
TGI (SW-620 colon): 3.63 µM
GI50 (T-47D breast): 1780 nM
TGI (T-47D breast): 3.56 µM
GI50 (TK-10 renal): 1850 nM
TGI (TK-10 renal): 3.64 µM
GI50 (U251 CNS): 1840 nM
TGI (U251 CNS): 3.23 µM
GI50 (UACC-257 melanoma): 1940 nM
TGI (UACC-257 melanoma): 4.55 µM
GI50 (UACC-62 melanoma): 1990 nM
TGI (UACC-62 melanoma): 4.59 µM
GI50 (UO-31 renal): 2030 nM
TGI (UO-31 renal): 5.4 µM
